Values after ≈ are worked out from the molar mass of the structure shown.

Assay [1] deals with Plasmodium falciparum (D6 clone). Kind of assay: Antimalarial activity in vitro, D6 clone. Type of assay: cell-based.
Another assay relates to Leishmania donovani. Nature of the assay: Antileishmanial activity in vitro. The class given is cell-based.
The test system of assay [2] is P. falciparum (chlorine-resistant W2 clone). Nature of the assay: Antimalarial activity in vitro, W2 clone. The class given is cell-based, Plasmodium falciparum.
The subject of assay [3] is Mycobacterium intracellulare. Nature of the assay: Activity against M. intracellulare. The class given is cell-based.
Assay [4] deals with Mycobacterium tuberculosis H37Rv. Nature of the assay: In vitro antimycobacterial activity (Microplate Alamar Blue Assay), MIC. Type of assay: cell-based. Conditions: T4. Background: The colour change of resazurin is a common sign of viable cells or microbes.
The next assay has as its system Cryptococcus neoformans. Kind of assay: Antifungal activity against Cryptococcus neoformans. Type of assay: cell-based. Conditions: T5; NA = not active.
A further assay concerns HIV-1LAV. Nature of the assay: Anti-HIV-1 activity in PBM cells. The class given is cell-based, human immunodeficiency virus (HIV-1). To be noted: T5. The procedure:
Anti-HIV-1 activity was determined in PBM cells as described previously. See, Stock solutions (20 or 40 mM) of the compounds were prepared in sterile DMSO and then diluted to the desired concentration in growth medium. Cells were infected with the prototype HIV-1LAV at a multiplicity of infection of 0.1. Details on the infection of cells and assessment of antiviral effects was described previously. See, Schinazi, R. F.; McMillan, A.; Cannon, D.; Mathis, R.; Lloyd, R. M.; Peck, A.; Sommadossi, J.-P.; Clair, M. S.; Wilson, J.; Furman, P. A.; Painter G.; Choi, W.-B.; Liotta, D. C. Antimicrob. Agents Chemother. 1992, 36, 2423-2431 and Schinazi, R. F.; Sommadossi, J.-P.; Saalmann, V.; Cannon, D. L.; Xie, M.-Y.; Hart, G. C.; Smith, G. A.; Hahn, E. F. Antimicrob. Agents Chemother. 1990, 34, 1061-1067.

12-O-methylmanzamine-A: the “Plasmodium falciparum (D6 clone) IC 50” value in assay [1] (T7) turned out to be 1.9 µg/mL. For the same compound, in the assay with Leishmania donovani (T7), the “Leishmania donovani IC 50” value came to 6.5 µg/mL and the “Leishmania donovani IC 90” value is 16 µg/mL. In addition, the “P. falciparum (chlorine-resistant W2 clone) IC 50” value (“P. falciparum” below) in assay [2] (T7) was 1 µg/mL. Also, the “M. intracellulare IC50” value in assay [3] (T7, first value of a cell '2.0/5.0') was found to be 2.0 µg/mL. In addition, in assay [3] (T7, value after the slash under head IC50), the “M. intracellulare, second value of the cell (presumably MIC)” value is 5.0 µg/mL.
`O=C1CCCN2[C@@H](CC1)C[C@]13CN4CCCC/C=C\CC[C@](O)(C=C(c5nccc6c5[nH]c5ccc(O)cc56)[C@@H]1CC4)[C@H]23` [6-Hydroxymanzamine E]: in assay [1] (T4, NA = not active), the “Plasmodium falciparum (D6 clone) IC 50” value worked out at 0.78 µg/mL. In addition, the “Mycobacterium Tuberculosis (H37Rv) MIC” value in assay [4] came out at 0.4 µg/mL. Besides, in the assay on Leishmania donovani (T4), the “Leishmania donovani IC 50” value was 2.5 µg/mL and the “Leishmania donovani IC 90” value is 4.3 µg/mL. Besides, in the assay on Cryptococcus neoformans, the “Antifungal IC50 C. neoformans” value came out at 5.5 µg/mL. In addition, in assay [2] (T4, NA = not active), the “P. falciparum” value amounted to 0.87 µg/mL. The “IC50 M. intracellulare” value in assay [3] (T5, NA = not active) is 3.5 µg/mL (≈ 6.03 µM).
A word on the EC50: it is the concentration giving half of the maximal effect. The low end stands for higher potency in that assay, the high end for lower potency in that assay. On to `O=C1CCCN2C3C45C=C(c6nccc7c6[nH]c6ccccc67)C6CCN(CCCC/C=C\CC4)CC63C[C@@]2(CC1)O5` (stereo partly shown) [12,34-Oxamanzamine E], for which the EC50 in the assay on HIV-1LAV amounted to 17.5 µM.
On to `CCCCOC12C=C(c3nccc4c3[nH]c3ccccc34)C3CCN(CCCCC=CCC1)CC31CC3C=CCCCCN3C21` (stereo not shown) [12-O-butylmanzamine-A], for which, in the assay on Leishmania donovani (T7), the “Leishmania donovani IC 50” value is 4.7 µg/mL and the “Leishmania donovani IC 90” value came to 9.1 µg/mL.
In the same order, the values of `CCOC12C=C(c3nccc4c3[nH]c3ccccc34)C3CCN(CCCCC=CCC1)CC31CC3C=CCCCCN3C21` (stereo not shown) [12-O-ethylmanzamine-A] are 2.8 µg/mL and 8.2 µg/mL.
As for `CC(C)COC12C=C(c3nccc4c3[nH]c3ccccc34)C3CCN(CCCCC=CCC1)CC31CC3C=CCCCCN3C21` (stereo not shown) [12-O-isobutylmanzamine-A], in the assay on Leishmania donovani (T7), the “Leishmania donovani IC 50” value was determined as 0.98 µg/mL and the “Leishmania donovani IC 90” value stood at 2.6 µg/mL.
On the same counts, the results for `CCCOC12C=C(c3nccc4c3[nH]c3ccccc34)C3CCN(CCCCC=CCC1)CC31CC3C=CCCCCN3C21` (stereo not shown) [12-O-propylmanzamine-A] are 4.5 µg/mL and 8.7 µg/mL.
Turning to `COc1ccc(OC)c(NC2CCCN3C(CC2)C[C@]24CN5CCCC/C=C\CC[C@](O)(C=C(c6nccc7c6[nH]c6c(O)cccc67)C2CC5)[C@H]34)c1` (stereo partly shown) [33-(2,5-dimethoxyaniline)-manzamine-F], the “Plasmodium falciparum (D6 clone) IC 50” value in assay [1] (T8, NA not defined) was 1.7 µg/mL. The “P. falciparum” value in assay [2] (T8) is 2.6 µg/mL.
On the same counts, the results for `Oc1cccc2c1[nH]c1c(C3=C[C@@]4(O)CC/C=C\CCCCN5CCC3[C@]3(CC6CCC(NCc7ccc(Cl)cc7)CCCN6[C@H]34)C5)nccc12` (stereo partly shown) [33-(p-chlorobenzylamino)-manzamine-F] are 0.68 µg/mL and 1.3 µg/mL.
As to `C[C@@H]1CC[C@H]2[C@@H](C)C(=O)O[C@@H]3O[C@@]4(C)CC[C@@H]1[C@]32OO4` [Artemisinin, reference compound], the IC50 in assay [1] (Plasmodium falciparum, D6, T4, NA = not active, read-out: Plasmodium falciparum (D6 clone) IC 50) is 0.01 µg/mL (≈ 0.0354 µM); in assay [2] (Plasmodium falciparum, W2, T4, NA = not active, read-out: P. falciparum (chlorine-resistant W2 clone) IC 50), 0.0063 µg/mL (≈ 0.0223 µM).

For the origin of these results see patent US20050085554A1, “Methods of treating disease through the administration of a manzamine analog or derivative” (priority 2003, published 2005).
